Test results as given in ChEMBL document CHEMBL1201862, “PubChem BioAssay data set” (2004).
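48-hour exposure; five concentrations; linearly interpolated endpoints. GI50 marks 50% less growth.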 Active and inactive are the calls of the source. No stated cut-off is given here; in the data, active = GI50 up to about 1.1 µM and inactive = higher.

Columns and labels:
Experiment in all cases: growth of human tumour cells (NCI), 48 h
786-0 = system: 786-0
OVCAR-3 = system: OVCAR-3
A549 = system: A549
KM12 = system: KM12
NCI-H522 = system: NCI-H522
UO-31 = system: UO-31
SK-MEL-2 = system: SK-MEL-2
M14 = system: M14
SF-539 = system: SF-539
EKVX = system: EKVX
HL-60 = system: HL-60
OVCAR-4 = system: OVCAR-4
HCT-116 = system: HCT-116
NCI-H226 = system: NCI-H226
COLO 205 = system: COLO 205
SW-620 = system: SW-620
CAKI-1 = system: CAKI-1

Measured: GI50

O=C(NC12CC3CC(CC(C3)C1)C2)C(=O)c1c[nH]c2ccc(Cl)cc12
inactive: 786-0 6.24 µM | OVCAR-3 13.8 µM | A549 > 100 µM | KM12 35.6 µM | NCI-H522 85.5 µM | UO-31 66.4 µM | SK-MEL-2 26.7 µM | M14 20 µM | SF-539 16.5 µM | EKVX > 100 µM | HL-60 17.3 µM | OVCAR-4 21.2 µM | HCT-116 30.1 µM | NCI-H226 37.4 µM | COLO 205 81.8 µM

C/C(CC(=O)Nc1cccc([N+](=O)[O-])c1)=N/NC(N)=S
inactive: 786-0 > 100 µM | OVCAR-3 > 100 µM | A549 > 100 µM | KM12 > 100 µM | NCI-H522 > 100 µM | UO-31 > 100 µM | SK-MEL-2 > 100 µM | M14 > 100 µM | SF-539 > 100 µM | SW-620 > 100 µM | EKVX > 100 µM | HL-60 > 100 µM | HCT-116 > 100 µM | NCI-H226 > 100 µM | COLO 205 > 100 µM

C=CCC1=C2CCCCC2CCC1=O (centres undefined)
inactive: 786-0 > 100 µM | OVCAR-3 > 100 µM | A549 > 100 µM | KM12 > 100 µM | NCI-H522 > 100 µM | UO-31 > 100 µM | SK-MEL-2 > 100 µM | M14 > 100 µM | SF-539 > 100 µM | SW-620 > 100 µM | EKVX > 100 µM | HL-60 > 100 µM | OVCAR-4 > 100 µM | HCT-116 > 100 µM | COLO 205 > 100 µM | CAKI-1 > 100 µM

C=C(C)C1CC=C(C)C(O)([C@@]2(O)C[C@H](C(=C)C)CC=C2C)C1 (some centres undefined)
inactive: 786-0 16.8 µM | OVCAR-3 13.4 µM | A549 29.7 µM | KM12 19.3 µM | NCI-H522 12.6 µM | UO-31 28.4 µM | SK-MEL-2 17.4 µM | M14 16.4 µM | SF-539 19.8 µM | SW-620 26.7 µM | HL-60 23.1 µM | OVCAR-4 19 µM | HCT-116 17.6 µM | NCI-H226 > 10 µM | CAKI-1 13.5 µM

CCOC(=O)C(Oc1ccc(OC)c2c1C(=O)CCC2)c1ccccc1 (centres undefined)
inactive: 786-0 > 100 µM | OVCAR-3 > 100 µM | A549 > 100 µM | KM12 > 100 µM | NCI-H522 94 µM | UO-31 53.2 µM | SK-MEL-2 > 100 µM | M14 > 100 µM | SF-539 > 100 µM | SW-620 > 100 µM | EKVX 50.2 µM | HL-60 49 µM | OVCAR-4 48.9 µM | HCT-116 84.7 µM | COLO 205 > 100 µM | CAKI-1 > 100 µM

O=C1c2ccccc2C(=O)c2cc3c(cc21)C[S+]([O-])C3
inactive: 786-0 > 100 µM | OVCAR-3 > 100 µM | A549 > 100 µM | KM12 > 100 µM | NCI-H522 > 100 µM | UO-31 > 100 µM | SK-MEL-2 > 100 µM | M14 > 100 µM | SF-539 > 100 µM | SW-620 > 100 µM | EKVX > 100 µM | HL-60 > 100 µM | OVCAR-4 > 100 µM | COLO 205 > 100 µM | CAKI-1 > 100 µM

O=C1CC(=O)N(CCc2ccccc2)S(=O)(=O)N1CCc1ccccc1
inactive: 786-0 17.1 µM | OVCAR-3 16.9 µM | A549 24.4 µM | KM12 16.2 µM | NCI-H522 19.5 µM | UO-31 21.8 µM | SK-MEL-2 22.6 µM | M14 40.6 µM | SF-539 22.6 µM | SW-620 31.8 µM | HL-60 19.1 µM | OVCAR-4 19.8 µM | HCT-116 28.7 µM | COLO 205 22.4 µM | CAKI-1 22.2 µM

Nc1c(-c2ccc(-c3c(N)[n+]([O-])c4ccccc4[n+]3[O-])cc2)[n+]([O-])c2ccccc2[n+]1[O-]
inactive: 786-0 13.5 µM | OVCAR-3 15.7 µM | A549 20.9 µM | KM12 11.1 µM | NCI-H522 1.6 µM | UO-31 16.4 µM | SK-MEL-2 13.7 µM | M14 12.2 µM | SF-539 4.92 µM | SW-620 4.5 µM | EKVX 31.8 µM | HL-60 13.9 µM | OVCAR-4 17.7 µM | NCI-H226 20.6 µM | COLO 205 10.1 µM | CAKI-1 6.65 µM

O=C(O)CN(c1ccccc1)S(=O)(=O)c1ccc([N+](=O)[O-])cc1
inactive: 786-0 > 100 µM | OVCAR-3 > 100 µM | A549 > 100 µM | KM12 > 100 µM | NCI-H522 > 100 µM | UO-31 > 100 µM | SK-MEL-2 > 100 µM | M14 > 100 µM | SF-539 > 100 µM | SW-620 > 100 µM | EKVX > 100 µM | HL-60 > 100 µM | OVCAR-4 > 100 µM | NCI-H226 > 100 µM | COLO 205 > 100 µM | CAKI-1 > 100 µM

Cc1ccc(S(=O)(=O)N/N=C(\c2nc3ccc([N+](=O)[O-])cc3[nH]c2=O)C(O)c2ccc([N+](=O)[O-])cc2)cc1 (centres undefined)
inactive: 786-0 > 100 µM | OVCAR-3 > 100 µM | A549 > 100 µM | NCI-H522 10.8 µM | UO-31 56.9 µM | SK-MEL-2 > 100 µM | M14 > 100 µM | SF-539 > 100 µM | SW-620 > 100 µM | EKVX > 100 µM | HL-60 10 µM | OVCAR-4 68.9 µM | COLO 205 > 100 µM | CAKI-1 97.1 µM

CC(=O)NC(CCCCNC(=O)N(C)N=O)C(=O)NCc1ccccc1 (centres undefined)
inactive: 786-0 > 100 µM | OVCAR-3 > 100 µM | A549 > 100 µM | KM12 > 100 µM | NCI-H522 > 100 µM | UO-31 > 100 µM | SK-MEL-2 > 100 µM | M14 > 100 µM | SF-539 > 100 µM | SW-620 > 100 µM | EKVX > 100 µM | OVCAR-4 > 100 µM | HCT-116 > 100 µM | NCI-H226 > 100 µM | COLO 205 > 100 µM | CAKI-1 > 100 µM

CSCCC(C(=O)O)N(CC1(O)OCC(O)C(O)C1O)N=O (centres undefined)
inactive: 786-0 > 100 µM | OVCAR-3 > 100 µM | A549 > 100 µM | KM12 > 100 µM | NCI-H522 > 100 µM | UO-31 > 100 µM | SK-MEL-2 > 100 µM | M14 > 100 µM | SF-539 > 100 µM | SW-620 > 100 µM | EKVX > 100 µM | HL-60 > 100 µM | HCT-116 > 100 µM | COLO 205 > 100 µM

CCCCCCCC(=O)NCC(O)CNC(=O)CCCCCCC
inactive: 786-0 > 100 µM | OVCAR-3 > 100 µM | A549 > 100 µM | KM12 > 100 µM | NCI-H522 > 100 µM | UO-31 > 100 µM | M14 > 100 µM | SF-539 > 100 µM | SW-620 > 100 µM | EKVX > 100 µM | HL-60 > 100 µM | OVCAR-4 > 100 µM | HCT-116 > 100 µM | NCI-H226 > 100 µM | COLO 205 > 100 µM | CAKI-1 > 100 µM
